Experimental data published in patent US20260158015A1 (Universite De Bordeaux, priority 2021, published 2026).

Test system: SARS-CoV2 original Wuhan strain, Alpha, Delta and Omicron viruses
Test: Replication of SARS-CoV-2 circulating forms in pulmonary A549-ACE2 cells
Assay type: cell-based
Settings: Severe acute respiratory syndrome coronavirus 2, read-out: IC50, block of viral replication of all variants

## O=S(=O)(c1ccccc1)n1c(-c2cncc(-c3cc4cc(OCc5ccccc5)ccc4n3S(=O)(=O)c3ccccc3)c2)cc2cc(OCc3ccccc3)ccc21 [AB-00011778]
  IC50: 500 to 1000 nM
